Some test systems named below: SK-MEL-28 melanoma; HCC-2998 colon; HOP-92 NSCLC; NCI-H23 lung; CCRF-CEM leukemia; A498 renal; IGROV1 ovarian; HOP-62 NSCLC; UO-31 renal; SK-OV-3 ovarian; HL-60(TB) leukemia; U251 CNS; SF-295 CNS; EKVX NSCLC; K-562 leukemia; 786-0 renal; ACHN renal; M14 melanoma; MDA-MB-231 breast.
What all share (experiment): NCI-60 cell line screen, 48 h

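Test compounds were applied to cells in 96-well plates for 48 hours at 5 doses. Definition used: TGI = concentration required for complete inhibition of growth.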

Consider `C=CC12CN(C)C3C4COC(CC41)C1(C(=O)Nc4ccccc41)C32` (stereo not given), for which the TGI in the assay with SK-MEL-28 melanoma is > 200 µM; in the assay on HCC-2998 colon it was > 200 µM; in the assay with HOP-92 NSCLC, > 200 µM; in the assay on NCI-H23 lung, > 200 µM; in the assay on CCRF-CEM leukemia, > 195 µM; in the assay with A498 renal, > 200 µM. Besides, the TGI with IGROV1 ovarian is > 200 µM; in the assay on HOP-62 NSCLC, > 200 µM; in the assay with UO-31 renal, > 200 µM; in the assay with SK-OV-3 ovarian it was > 82.4 µM; in the assay with HL-60(TB) leukemia, > 186 µM; in the assay with U251 CNS it was > 200 µM. Further, the TGI in the assay with SF-295 CNS, in the assay with EKVX NSCLC and in the assay on K-562 leukemia was > 200 µM each time.

For `CC1=NN(C(=O)c2ccc(Cl)cc2)C(=O)/C1=C/c1cccc([N+](=O)[O-])c1`, the TGI in the assay on SK-MEL-28 melanoma, in the assay on HCC-2998 colon, in the assay with 786-0 renal, in the assay on HOP-92 NSCLC, in the assay with NCI-H23 lung and in the assay with CCRF-CEM leukemia was > 100 µM in each case. The TGI with A498 renal, in the assay on ACHN renal, in the assay on IGROV1 ovarian, in the assay on HOP-62 NSCLC, in the assay with UO-31 renal and in the assay with SK-OV-3 ovarian was > 100 µM in each case. Besides, the TGI in the assay on HL-60(TB) leukemia, in the assay on U251 CNS, in the assay with SF-295 CNS, in the assay with EKVX NSCLC, in the assay on K-562 leukemia and in the assay on M14 melanoma was > 100 µM throughout.

As for `Cn1c(=O)nc2n(-c3ccc(Cl)cc3Cl)c3ccccc3nc-2c1=O`, the TGI came to 23.5 µM in the assay with SK-MEL-28 melanoma; 14.5 µM in the assay with HCC-2998 colon; 9.24 µM in the assay with HOP-92 NSCLC; 22 µM in the assay on NCI-H23 lung; 27 µM with IGROV1 ovarian; 23.9 µM in the assay with HOP-62 NSCLC. The TGI in the assay with UO-31 renal stood at 26 µM; in the assay on SK-OV-3 ovarian, 72.8 µM; in the assay on HL-60(TB) leukemia, 27.8 µM; with U251 CNS, 19 µM; with SF-295 CNS, 10.6 µM; in the assay with EKVX NSCLC it was 16.9 µM. For the same molecule, the TGI in the assay with K-562 leukemia was 22.6 µM; in the assay with M14 melanoma, 4.58 µM.

Regarding `OC(c1ccccc1)(c1ccccc1)c1cccnc1`, the TGI with SK-MEL-28 melanoma, with HCC-2998 colon, with 786-0 renal, in the assay on NCI-H23 lung, in the assay on CCRF-CEM leukemia and with A498 renal was > 100 µM throughout. The TGI with ACHN renal, in the assay on IGROV1 ovarian, with HOP-62 NSCLC, in the assay on UO-31 renal, in the assay on SK-OV-3 ovarian and with U251 CNS was > 100 µM in each case. The TGI with SF-295 CNS, with EKVX NSCLC, with K-562 leukemia and with M14 melanoma was > 100 µM each time.

Take `CC(Oc1ccc(OCC2CCCCC2)cc1)C(=O)N(CCO)CCO` (stereo not given): the TGI with SK-MEL-28 melanoma, in the assay on HCC-2998 colon, with 786-0 renal, in the assay with NCI-H23 lung, with CCRF-CEM leukemia and in the assay with A498 renal was > 100 µM throughout. Further, the TGI in the assay on ACHN renal, in the assay with IGROV1 ovarian, in the assay with UO-31 renal, with SK-OV-3 ovarian, in the assay with HL-60(TB) leukemia and with U251 CNS was > 100 µM throughout. The TGI in the assay on SF-295 CNS, in the assay on K-562 leukemia and with M14 melanoma was > 100 µM in each case.

Regarding `C=CCc1ccc(O)c(-c2cc(C3Oc4c(-c5cc(CC=C)ccc5O)cc(O)cc4[C@@H]3CO)ccc2O)c1` (stereo not given in full), the TGI was 76.8 µM in the assay with SK-MEL-28 melanoma; 68.7 µM in the assay on HCC-2998 colon; > 100 µM with 786-0 renal; 64.9 µM in the assay on HOP-92 NSCLC; 76.4 µM in the assay on NCI-H23 lung; 43.7 µM in the assay with CCRF-CEM leukemia. Besides, the TGI in the assay on A498 renal is 61.5 µM; with ACHN renal, > 100 µM; with IGROV1 ovarian, 51.6 µM; in the assay on HOP-62 NSCLC, 75 µM; in the assay with UO-31 renal it was > 100 µM; in the assay with SK-OV-3 ovarian, > 100 µM. The TGI was 38.5 µM in the assay on HL-60(TB) leukemia; 68.7 µM with U251 CNS; > 100 µM with SF-295 CNS; > 100 µM with EKVX NSCLC; 34.1 µM with K-562 leukemia; > 100 µM in the assay with M14 melanoma.

For the molecule `CCN1C(=O)C(=Cc2ccc(-c3ccccc3)cc2)C(=O)N(CC)C1=S`, the TGI in the assay with SK-MEL-28 melanoma, with MDA-MB-231 breast, in the assay with HCC-2998 colon, with 786-0 renal, with HOP-92 NSCLC and with NCI-H23 lung was > 100 µM throughout. For the same molecule, the TGI with CCRF-CEM leukemia, with ACHN renal, in the assay with IGROV1 ovarian, with HOP-62 NSCLC, in the assay with UO-31 renal and in the assay on SK-OV-3 ovarian was > 100 µM throughout. Further, the TGI with HL-60(TB) leukemia, in the assay with U251 CNS, in the assay with SF-295 CNS, in the assay with EKVX NSCLC, in the assay with K-562 leukemia and in the assay on M14 melanoma was > 100 µM throughout.

As to `CC(CCc1ccc2c(c1)c(=N)c1ccc(N)cc1n2O)CC(C)(C)C` (stereo not given), the TGI came out at 3.58 µM with SK-MEL-28 melanoma; 2.82 µM in the assay with 786-0 renal; 2.69 µM in the assay on CCRF-CEM leukemia; 3.51 µM with A498 renal; 3.14 µM in the assay on ACHN renal; 2.95 µM with IGROV1 ovarian. Further, the TGI turned out to be 3.31 µM in the assay with HOP-62 NSCLC; 34 µM with UO-31 renal; 3.42 µM in the assay with HL-60(TB) leukemia; 2.67 µM with U251 CNS; 7.29 µM in the assay on SF-295 CNS; 3.04 µM in the assay on EKVX NSCLC. The results for the TGI in the assay on K-562 leukemia and with M14 melanoma were 3.13 µM and 3.18 µM, respectively.

As to `COC(=O)[C@@]12OC[C@]34C([C@@H](O)C1O)[C@@]1(C)CC(=O)C(O)=C(C)C1C[C@H]3OC(=O)[C@H](OC(=O)CC(C)C(F)(F)F)[C@H]42` (stereo not given in full), the TGI with SK-MEL-28 melanoma was 0.111 µM; with HCC-2998 colon, 0.0599 µM; in the assay on 786-0 renal, 0.708 µM; in the assay with HOP-92 NSCLC, 0.131 µM; in the assay on NCI-H23 lung, 0.0717 µM; in the assay with A498 renal, 0.121 µM. The TGI amounted to 0.301 µM in the assay on ACHN renal; 1.05 µM with IGROV1 ovarian; 0.594 µM with HOP-62 NSCLC; 1.06 µM in the assay with UO-31 renal; 0.531 µM in the assay with SK-OV-3 ovarian; 0.0175 µM in the assay on HL-60(TB) leukemia. For the same molecule, the TGI came out at 0.214 µM in the assay on U251 CNS, 0.191 µM with SF-295 CNS, 0.999 µM in the assay with EKVX NSCLC and 0.124 µM in the assay on M14 melanoma.

In the case of `CC(C)=CCC/C(C)=C/Cc1c(O)ccc2c1[nH]c1cc(O)c(C)cc12`, the TGI in the assay on SK-MEL-28 melanoma, with HCC-2998 colon, in the assay on 786-0 renal, in the assay on HOP-92 NSCLC, with CCRF-CEM leukemia and in the assay with ACHN renal was > 25 µM in each case. Moreover, the TGI in the assay with IGROV1 ovarian was > 25 µM; in the assay with HOP-62 NSCLC, 23.4 µM; in the assay on UO-31 renal, > 25 µM; in the assay with SK-OV-3 ovarian, > 25 µM; in the assay on HL-60(TB) leukemia it was > 25 µM; in the assay with U251 CNS, > 25 µM. Also, the TGI in the assay on K-562 leukemia and in the assay on M14 melanoma was > 25 µM throughout.

Regarding `CCOC(=O)CN1CCSC1=NC#N`, the TGI in the assay with SK-MEL-28 melanoma, with HCC-2998 colon, in the assay on HOP-92 NSCLC, in the assay on NCI-H23 lung, in the assay on CCRF-CEM leukemia and in the assay on A498 renal was > 100 µM throughout. For the same molecule, the TGI with IGROV1 ovarian, in the assay on HOP-62 NSCLC, in the assay on UO-31 renal, in the assay on SK-OV-3 ovarian, with HL-60(TB) leukemia and in the assay on U251 CNS was > 100 µM throughout. For the same molecule, the TGI in the assay on SF-295 CNS is > 42.7 µM; in the assay with EKVX NSCLC, > 100 µM; in the assay on K-562 leukemia, > 100 µM.

With `COC1CC(n2cnc3c(N)ncnc32)OC1CO` (stereo not given), the TGI with SK-MEL-28 melanoma, in the assay with HCC-2998 colon, in the assay with 786-0 renal, in the assay on HOP-92 NSCLC, in the assay with NCI-H23 lung and in the assay on CCRF-CEM leukemia was > 100 µM each time. Besides, the TGI in the assay on ACHN renal, with IGROV1 ovarian, in the assay on HOP-62 NSCLC, with UO-31 renal, with HL-60(TB) leukemia and in the assay on U251 CNS was > 100 µM each time. Further, the TGI in the assay with SF-295 CNS, in the assay with K-562 leukemia and in the assay on M14 melanoma was > 100 µM each time.

As for `O=C(Nc1ccc([N+](=O)[O-])cc1)C(=O)C(C(=O)c1ccccc1F)C1OC(=O)c2ccccc21` (stereo not given), the TGI is > 100 µM in the assay on SK-MEL-28 melanoma; 41.4 µM with HCC-2998 colon; > 100 µM with HOP-92 NSCLC; > 100 µM with NCI-H23 lung; 58.4 µM with CCRF-CEM leukemia; > 100 µM with A498 renal. The TGI is > 100 µM in the assay with ACHN renal; > 100 µM with IGROV1 ovarian; > 100 µM in the assay on HOP-62 NSCLC; > 100 µM in the assay on UO-31 renal; > 100 µM in the assay on SK-OV-3 ovarian; 66.1 µM in the assay with HL-60(TB) leukemia. Further, the TGI was 39.9 µM in the assay with U251 CNS; > 100 µM with SF-295 CNS; > 100 µM with EKVX NSCLC; > 100 µM in the assay on K-562 leukemia; > 100 µM in the assay on M14 melanoma.

For the origin of these results see PubChem BioAssay (NCI).
